Measurements from paper PMC6413121, “Antiplasmodial and Cytotoxic Cytochalasins from an Endophytic Fungus, Nemania sp. UM10M, Isolated from a Diseased Torreya taxifolia Leaf” (Molecules, 2019).
Read-outs that look alike come from different tables or passages of the source.

Columns and labels:
[1] = system: P. falciparum D6 (chloroquine sensitive) strain; assay: microbe, parasite or virus in culture; assay type: cell-based, Plasmodium falciparum; settings: for Chloroquine-Sensitive (D6)-Strain S. I.: selectivity index = IC50 for cytotoxicity (Vero)/IC50 for antiplasmodial activity; for IC50: Plasmodium falciparum
[2] = system: Vero cells (mammalian kidney fibroblasts); assay: in vitro; assay type: cell-based; settings: highest concentration tested […]
[3] = system: P. falciparum W2 (chloroquine resistant) strain; assay: microbe, parasite or virus in culture; assay type: cell-based, Plasmodium falciparum; settings: for Chloroquine-Resistant (W2)-Strain S. I.: selectivity index = IC50 for cytotoxicity (Vero)/IC50 for antiplasmodial activity; for IC50: Plasmodium falciparum
[4] = system: P. berghei (NK-65 strain); assay: In vivo antimalarial assay in mice infected with P. berghei; set-up: species or system mice (Swiss Webster); settings: for Day of Death (post infection): one value per animal; for % Parasitemia Suppression Day 5 / % Parasitemia Suppression Day 7: vehicle control = 100% parasitemia, < 80% non-significant
Protocol: The protocol for in vivo antimalarial evaluation was approved by the University of Mississippi Institutional Animal Care and Use Committee (IACUC). The in vivo antimalarial activity was determined in mice infected with P. berghei (NK-65 strain). Male mice (Swiss Webster strain) weighing 18-20 g were intraperitoneally inoculated with 2 × 10^7 parasitized red blood cells obtained from a highly infected donor mouse. Mice were divided into different groups with five mice in each group. Compound stocks were prepared in DMSO and administered orally to the mice through gavage two hours after the infection (day 0). The animals were treated once daily for consecutive days (day 0 to 2) and were closely observed for at least 2 h after every dose for any apparent signs of toxicity. Blood smears were prepared on different days starting from 5 days post infection (through 28 days) by clipping the tail end, stained with Giemsa, and the slides were observed under microscope for determination of parasitemia. Mice without parasitemia through day 28 postinfection were considered as cured. Also, suppression in development of parasitemia was computed by comparing the parasitemia in the control vehicle treated group and groups treated with compound. The mean survival time was also computed for control and treated groups. The results are presented as parasitemia suppression of day 5 post treatment, mean survival time of mice in each group, cure and survival graphs computed by Prism 6.0. (San Diego, CA, USA).

[5] = in vitro; assay type: cell-based, pig; settings: pig; concentration causing 50% growth inhibition; read-out: Cytotoxic activity IC50, LLC-PK11
Protocol: (§1) In vitro cytotoxicity was determined against a panel of mammalian cells that included kidney fibroblast (Vero), kidney epithelial (LLC-PK11), malignant melanoma (SK-MEL), oral epidermal carcinoma (KB), breast ductal carcinoma (BT-549), and ovary carcinoma (SK-OV-3) cells Doxorubicin was used as a positive control.

[6] = in vitro; assay type: cell-based, human; settings: human, concentration causing 50% growth inhibition
Protocol: as §1

[7] = system: lettuce (Lactuca sativa cv. L., Iceberg); assay: In vitro phytotoxicity assay, lettuce; settings: 1 mg/mL; 10% acetone; scale of 0 to 5, 0 = no effect, 5 = no growth
Protocol: (§2) Herbicidal or phytotoxic activity of the extract and compounds was performed according to the published procedure using bentgrass (Agrostis stolonifera) and lettuce (Lactuca sativa cv. L., Iceberg), in 24-well plates. Phytotoxicity was ranked visually. The ranking of phytotoxic activity was based on a scale of 0 to 5 with 0 showing no effect and 5 no growth.

[8] = system: bentgrass (Agrostis stolonifera); assay: In vitro phytotoxicity assay, bentgrass; settings: 1 mg/mL; 10% acetone; scale of 0 to 5, 0 = no effect, 5 = no growth
Protocol: as §2

[9] = in vitro; assay type: cell-based; settings: African green monkey
[10] = intraperitoneal, subcutaneous, or intravenous injections up to 100 mg/kg/day; cited from earlier work
[11] = system: LLC-PK11 (pig kidney epithelial); assay: in vitro; assay type: cell-based; settings: concentration causing 50% growth inhibition; read-out: Cytotoxic activity IC50, LLC-PK11
Protocol: as §1

[12] = system: KB (human epidermal carcinoma); assay: in vitro; assay type: cell-based; settings: concentration causing 50% growth inhibition; read-out: Cytotoxic activity IC50, KB
Protocol: as §1

[13] = system: SK-OV-3 (human ovary carcinoma); assay: in vitro; assay type: cell-based; settings: concentration causing 50% growth inhibition; read-out: Cytotoxic activity IC50, SK-OV-3
Protocol: as §1

[14] = system: SK-MEL (human malignant melanoma); assay: in vitro; assay type: cell-based; settings: concentration causing 50% growth inhibition; read-out: Cytotoxic activity IC50, SK-MEL
Protocol: as §1

[15] = system: BT-549 (human breast carcinoma, ductal); assay: in vitro; assay type: cell-based; settings: concentration causing 50% growth inhibition; read-out: Cytotoxic activity IC50, BT-549
Protocol: as §1

[16] = PO, 100 mg/kg × 3 days, P. berghei
[17] = W2, read-out: Chloroquine-Resistant (W2)-Strain IC50
[18] = W2, read-out: Chloroquine-Resistant (W2)-Strain IC50 (ng/mL)
[19] = P. falciparum D6, read-out: Chloroquine-Sensitive (D6)-Strain IC50
[20] = P. falciparum D6, read-out: Chloroquine-Sensitive (D6)-Strain IC50 (ng/mL)
[21] = read-out: Cytotoxic activity IC50, BT-549
[22] = read-out: Cytotoxic activity IC50, KB
[23] = read-out: Cytotoxic activity IC50, SK-MEL
[24] = read-out: Cytotoxic activity IC50, SK-OV-3
[25] = highest concentration tested […], read-out: Cytotoxicity to Vero Cells IC50
[26] = read-out: Cytotoxicity to Vero cells

Row | SMILES | Chloroquine-Sensitive (D6)-Strain S. I. [1] | Chloroquine-Resistant (W2)-Strain S. I. [3] | IC50 [3, 17] | IC50 [3, 18] | IC50 [5] | IC50 [1, 19] | IC50 [1, 20] | IC50 [6, 21] | IC50 [6, 22] | IC50 [6, 23] | IC50 [6, 24] | Phytotoxic activity, Lettuce (ranking) [7] | Phytotoxic activity, Bentgrass (ranking) [8] | IC50 [9, 25] | Toxicity in animal models at therapeutic doses [10] | other results
1 | C[C@@H]1CC[C@H]2[C@@H](C)C(=O)O[C@@H]3O[C@@]4(C)CC[C@@H]1[C@]32OO4 [Artemisinin, reference compound] | >850 | >1586.6 |  |  |  |  |  |  |  |  |  |  |  |  |  | Cytotoxicity to Vero Cells IC50 [2]: NC (not cytotoxic at the highest concentration tested (4760 ng/mL))
2 | CCN(CC)CCCC(C)Nc1ccnc2cc(Cl)ccc12 (stereo not drawn) [Chloroquine, reference compound] |  |  | 310 nM | 160 ng/mL |  |  |  |  |  |  |  |  |  |  |  | IC50 ([1]; D6, read-out: Chloroquine-Sensitive (D6)-Strain IC50): 30 nM; IC50 ([1]; D6, read-out: Chloroquine-Sensitive (D6)-Strain IC50 (ng/mL)): 16 ng/mL; Cure (mice without parasitemia till day 28 post-infection) [4, 16]: 2/5; MST (mean survival time) [4, 16]: 28 days; Survival (animals that survived day 28/total animals in group) [4, 16]: 5/5; Day of Death (post infection) [4, 16]: 28/28/28/28/28; % Parasitemia Suppression Day 5 [4, 16]: 100%; % Parasitemia Suppression Day 7 [4, 16]: 100%; Cytotoxicity to Vero Cells IC50 [2]: NC (not cytotoxic at the highest concentration tested (4760 ng/mL))
3 | CC(=O)OC1C2OC2C(C)(O)C(=O)C(C)CC=CC2C(O)C(C)=C(C)C3C(Cc4ccccc4)NC(=O)C213 [Compound 1, (3S,4R,7S,8S,9R,16S,18R,19R,20S,21S)-19,20-epoxycytochalasin C] | >128.6 | >170 | 50 nM | 28 ng/mL | > 10000 nM | 70 nM | 37 ng/mL | > 10000 nM | > 10000 nM | 8020 nM | > 10000 nM | 3 | 2 | > 4.76 µg/mL |  | MST (mean survival time) [4, 16]: 5.2 days; Survival (animals that survived day 28/total animals in group) [4, 16]: 0/5; Day of Death (post infection) [4, 16]: 17/5/3/1/0; % Parasitemia Suppression Day 5 [4, 16]: 33.9%; % Parasitemia Suppression Day 7 [4, 16]: 71.4%; Animals that died due to drug induced toxicity ([4]; oral, 100 mg/kg/day for 3 days): Three out of 5; IC50 [9, 26]: > 4.76 µg/mL
4 | C=C1C(C)C2C(Cc3ccccc3)NC(=O)C23C(C=CCC(C)C(=O)C(C)(O)C2OC2C3OC(C)=O)C1O [Compound 2, (3S,4R,5S,7S,8S,9R,16S,18R,19R,20S,21S)-19,20-epoxycytochalasin D] | >216.3 | >238 | 40 nM | 20 ng/mL | 8400 nM | 40 nM | 22 ng/mL | 7840 nM | > 10000 nM | > 10000 nM | > 10000 nM | 3 | 3 | > 4.76 µg/mL |  | IC50 [9, 26]: > 4.76 µg/mL
5 | CC(=O)OC1C2OC2C(C)C(=O)C(C)CC=CC2C(O)C(C)=C(C)C3C(Cc4ccccc4)NC(=O)C213 [Compound 3, (3S,4R,7S,8S,9R,16(S),18S,19S,20R,21S)-18-deoxy-19,20-epoxycytochalasin C] | >17 | >47.6 | 190 nM | 100 ng/mL | > 10000 nM | 560 nM | 280 ng/mL | 6890 nM | > 10000 nM | > 10000 nM | > 10000 nM | 3 | 4 | > 4.76 µg/mL |  | 
6 | C=C1[C@@H](C)[C@H]2[C@H](Cc3ccccc3)NC(=O)[C@]23OC(=O)/C=C/[C@H](O)CCC[C@@H](C)C/C=C/[C@H]3[C@@H]1O [Cytochalasin B] |  |  |  |  |  |  |  |  |  |  |  |  |  |  | no toxicity | 
7 | C=C1[C@@H](C)[C@H]2[C@H](Cc3ccccc3)NC(=O)[C@]23[C@H](OC(C)=O)/C=C/[C@@](C)(O)C(=O)[C@@H](C)C/C=C/[C@H]3[C@@H]1O [Cytochalasin D] |  |  |  |  |  |  |  |  |  |  |  |  |  |  | no toxicity | 
8 | C[C@H]1C/C=C/[C@H]2[C@@H]3O[C@]3(C)[C@@H](C)[C@H]3[C@H](Cc4ccccc4)NC(=O)[C@]32OC(=O)O/C=C/[C@@](C)(O)C1=O [Cytochalasin E] |  |  |  |  |  |  |  |  |  |  |  |  |  |  | no toxicity | 
9 | COc1cccc2c1C(=O)c1c(O)c3c(c(O)c1C2=O)C[C@@](O)(C(=O)CO)C[C@@H]3O[C@H]1C[C@H](N)[C@H](O)[C@H](C)O1 [Doxorubicin, reference compound] |  |  |  |  |  |  |  |  |  |  |  |  |  |  |  | IC50 [11]: 1280 nM; IC50 [12]: 2120 nM; IC50 [13]: 1470 nM; IC50 [14]: 1290 nM; IC50 [15]: 1830 nM
